Where two headings read alike, the source gives them in different places.
Experiments:
[1] = tested on: DA-depleted DAT-KO (DDD) mice; assay: Catalepsy test (horizontal bar) in DDD mice; details: for Catalepsy (sec) 2 h: as E4, 1 h after second dose
[2] = tested on: DA-depleted DAT-KO (DDD) mice; assay: Grasping test of muscular rigidity in DDD mice; details: as E1; 1 h after second dose
[3] = tested on: DA-depleted DAT-KO (DDD) mice; assay: Akinesia test (forelimb steps in 30 s) in DDD mice; details: as E7; 1 h after second dose
[4] = tested on: DA-depleted DAT-KO (DDD) mice; details: mouse, in vivo
WT mice [5] = assay: Neurotoxic regimen of (±)-MDMA; details: (±)-MDMA 4 injections of 20 mg/kg IP, every 2 h; WT mice n=7
DAT-KO mice [6] = assay: Neurotoxic regimen of (±)-MDMA, striatal tissue DA and 5-HT 7 d later; details: (±)-MDMA 4 injections of 20 mg/kg IP, every 2 h, DAT-KO mice n=7
DAT-KO mice [7] = assay: In vivo microdialysis of striatal extracellular DA
Procedure: (§1) Neurochemical assessments. Striatal tissue contents of DA and frontal cortical tissue levels of NE were assessed using HPLC-EC (high performance liquid chromatography with electrochemical detection) as described. In vivo microdialysis measurements of striatal extracellular DA levels in freely moving mice were performed at least 24 h after implantation of a microdialysis probe as described previously. Dialysate samples were assayed for DA using HPLC-EC.

[8] = tested on: DA-depleted DAT-KO (DDD) mice; assay: Locomotor activity (forward locomotion, distance traveled) in DDD mice; details: for effect in tests of forward locomotion or akinesia and rigidity: NE- and 5-HT-related drugs, data not shown
[9] = tested on: DA-depleted DAT-KO (DDD) mice; assay: Ptosis score in DDD mice; details: cumulative dosing, scale 0-4, n=4
haloperidol-treated rats = haloperidol-treated rats [84]; cited from earlier work
6-OH-DA-lesioned rats = 6-OH-DA-lesioned rats [85]; cited from earlier work
MPTP-treated monkeys = MPTP-treated monkeys [64]; cited from earlier work
DD mice = details: [76], cited from earlier work
TA1 receptor = TA1 receptor (Rattus norvegicus, UniProt Q923Y9); details: reported in [42]; cited from earlier work
Chain of TA1 receptor (Q923Y9 whole entry): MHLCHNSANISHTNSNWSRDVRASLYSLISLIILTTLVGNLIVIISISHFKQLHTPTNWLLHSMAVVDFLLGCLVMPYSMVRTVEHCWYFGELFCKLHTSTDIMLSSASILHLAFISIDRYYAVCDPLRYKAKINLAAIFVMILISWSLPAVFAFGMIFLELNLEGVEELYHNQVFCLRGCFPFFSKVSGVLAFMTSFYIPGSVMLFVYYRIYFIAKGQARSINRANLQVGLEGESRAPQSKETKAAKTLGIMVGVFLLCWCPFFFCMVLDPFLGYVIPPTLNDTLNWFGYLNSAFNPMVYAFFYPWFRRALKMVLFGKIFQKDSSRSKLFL

DAT-KO mice [10] = assay: Striatal tissue DA by HPLC-EC after αMT; format: in vivo; details: αMT 250 mg/kg IP
Procedure: as §1

WT mice [11] = assay: Striatal tissue DA by HPLC-EC after αMT; format: in vivo; details: αMT 250 mg/kg IP; 4 h
Procedure: as §1

DAT-KO mice [12] = assay: Frontal cortex tissue NE by HPLC-EC after αMT; format: in vivo; details: αMT 250 mg/kg IP; 8 h after treatment
Procedure: as §1

WT mice [13] = assay: Frontal cortex tissue NE by HPLC-EC after αMT; format: in vivo; details: αMT 250 mg/kg IP; 8 h after treatment
Procedure: as §1

WT mice [14] = assay: In vivo microdialysis of striatal extracellular DA; details: αMT 250 mg/kg IP; freely moving WT mice
Procedure: as §1

DAT-KO mice [15] = details: 100 mg/kg IP once every 3 d for 40 wk; cited from earlier work
DAT-KO mice [16] = assay: Locomotor activity after αMT
WT mice [17] = assay: Locomotor activity after αMT; details: αMT 250 mg/kg IP
DAT-KO mice [18] = assay: Behavioral tests after αMT (akinesia, catalepsy, grasping, bracing, tremor, ptosis, righting reflex); details: αMT 250 mg/kg IP
[19] = DDD mice, drug 1 h after αMT 250 mg/kg IP

SMILES: CCNC(C)Cc1cccc(C(F)(F)F)c1 (racemic) [(±)-Fenfluramine]
- Catalepsy (sec) 2 h [1]: 138 ± 28 s
- Grasping test (sec) 2 h [2]: 8 ± 4 s
- Akinesia (steps) 2 h [3]: 32 ± 6 steps

SMILES: CC(N)Cc1ccc2c(c1)OCO2.Cl (racemic) [(±)-MDA, (±)-3,4-methylenedioxyamphetamine HCl]
- manifestations of akinesia and rigidity [4]: effective in reducing manifestations of akinesia and rigidity

SMILES: CNC(C)Cc1ccc2c(c1)OCO2.Cl (racemic) [(±)-MDMA, (±)-3,4-methylenedioxymethamphetamine HCl]
- manifestations of akinesia and rigidity [4]: effective in reducing manifestations of akinesia and rigidity
- lethality (WT mice [5]): lethality of all treated WT mice
- striatal tissue 5-HT (DAT-KO mice [6]): 0.40±0.02 ng/mg tissue
- striatal tissue DA (DAT-KO mice [6]): 0.58±0.04 ng/mg tissue

SMILES: CNC(C)Cc1ccc2c(c1)OCO2.Cl (single isomer, unassigned; (+)) [(+)-MDMA, (+)-3,4-methylenedioxymethamphetamine HCl]
- striatal extracellular DA in DDD mice (DAT-KO mice [7]; (+)-MDMA 100 mg/kg IP after αMT, in vivo microdialysis): did not produce any detectable increase in striatal extracellular DA
- forward locomotion (distance traveled) ([8]; mouse, in vivo): able to induce significant forward locomotion
- potentiation of locomotor-stimulating effect of subthreshold L-DOPA/carbidopa ([8]; mouse, in vivo): potent synergistic effect
- forward locomotion ([8]; mouse, in vivo, HCl): induced significant forward locomotion

SMILES: CCNC(C)Cc1cccc(C(F)(F)F)c1 (single isomer, unassigned; (-)) [(−)-Fenfluramine]
- Catalepsy (sec) 2 h [1]: 104 ± 31 s
- Grasping test (sec) 2 h [2]: 4 ± 1 s
- Akinesia (steps) 2 h [3]: 28 ± 5 steps

SMILES: CC(N)Cc1ccc(Cl)cc1 (stereo not shown) [4-chloro-amphetamine]
- manifestations of akinesia and rigidity [4]: effective in reducing manifestations of akinesia and rigidity

SMILES: COc1ccc2[nH]cc(CCN(C)C)c2c1 [5-methoxy-N,N-dimethyltryptamine]
- effect in tests of forward locomotion or akinesia and rigidity ([8]; DDD mice): none were effective

SMILES: Cc1ccc2[nH]cc(CCN(C)C)c2c1 [5-methyl-N,N-dimethyltryptamine]
- effect in tests of forward locomotion or akinesia and rigidity ([8]; DDD mice): none were effective

SMILES: CCN[C@@H](C)Cc1cccc(C(F)(F)F)c1 [(+)-Fenfluramine]
- Catalepsy (sec) 2 h [1]: 113 ± 23 s
- Grasping test (sec) 2 h [2]: 9 ± 4 s
- Akinesia (steps) 2 h [3]: 21 ± 3 steps

SMILES: CC(NC(C)(C)C)C(=O)c1cccc(Cl)c1 (stereo not shown) [Bupropion]
- Catalepsy (sec) 2 h [1]: 123 ± 28 s
- Grasping test (sec) 2 h [2]: 16 ± 3 s
- Akinesia (steps) 2 h [3]: 29 ± 11 steps

SMILES: C[C@@H](N)Cc1ccccc1 [L-Amphetamine]
- Catalepsy (sec) 2 h [1]: 99 ± 36 s
- Grasping test (sec) 2 h [2]: 9 ± 3 s
- Akinesia (steps) 2 h [3]: 29 ± 5 steps

SMILES: N[C@@H](Cc1ccc(O)c(O)c1)C(=O)O [L-DOPA]
- forward locomotion (distance traveled) [8, 19]: effectively restored locomotion

SMILES: N[C@H](C(=O)O)[C@H](O)c1ccc(O)c(O)c1 [L-DOPS, L-threo-3,4-dihydroxyphenylserine]
- ptosis score ([9]; 1 h after 100 mg/kg IP): 2.50±0.28
- ptosis score ([9]; 1 h after 200 mg/kg IP): 0
- ptosis score ([9]; 1 h after 400 mg/kg IP): 0
- effect in tests of forward locomotion or akinesia and rigidity ([8]; DDD mice): none were effective

SMILES: CNC(C)Cc1ccc2c(c1)OCO2 (stereo not shown) [MDMA, 3,4-methylenedioxymethamphetamine]
- anticataleptic effect (haloperidol-treated rats): potent anticataleptic effect
- antiakinetic effects (6-OH-DA-lesioned rats): antiakinetic effects
- antiakinetic effects (MPTP-treated monkeys): antiakinetic effects

SMILES: C[C@]12N[C@H](Cc3ccccc31)c1ccccc12 [MK-801]
- manifestations of akinesia and rigidity [4]: able to reduce rigidity
- forward locomotion (distance traveled) [8, 19]: not effective
- forward locomotion (distance traveled) ([8]; DDD mice, drug 1 h after αMT 250 mg/kg IP, listed as ME-801): did not result in a significant increase in forward locomotion

SMILES: COc1ccc2[nH]cc(C3=CCNCC3)c2c1 [RU24969]
- effect in tests of forward locomotion or akinesia and rigidity ([8]; DDD mice): none were effective

SMILES: CN1CCc2cccc3c2[C@H]1Cc1ccc(O)c(O)c1-3 [apomorphine]
- forward locomotion (distance traveled) [8, 19]: induced locomotion

SMILES: NCCc1ccccc1 [beta-phenylethylamine]
- forward locomotion (distance traveled) [8, 19]: did not induce forward locomotion
- stereotypic reactions, such as headweaving and sniffing ([8]; DDD mice, high doses, with or without inhibition of MAO): did promote weak stereotypic reactions

SMILES: Cn1c(=O)c2c(ncn2C)n(C)c1=O [caffeine]
- forward locomotion (distance traveled) ([8]; mouse, in vivo): not effective

SMILES: Clc1cccc(Cl)c1N=C1NCCN1 [clonidine]
- effect in tests of forward locomotion or akinesia and rigidity ([8]; DDD mice): none were effective

SMILES: C[C@H](N)Cc1ccccc1 [d-amphetamine]
- effects on akinesia and rigidity after pretreatment with D1 and D2 DA antagonists [4]: did not prevent the effects
- manifestations of akinesia and rigidity [4]: effective in reducing manifestations of akinesia and rigidity
- locomotor activation in DD mice (DD mice; 5 mg/kg, first treatment): induced potent locomotor activation
- locomotor activation in DD mice (DD mice; second treatment 2 h later, same dose): failed to induce locomotion

SMILES: CN[C@@H](C)Cc1ccccc1 [d-methamphetamine]
- manifestations of akinesia and rigidity [4]: effective in reducing manifestations of akinesia and rigidity

SMILES: C#CCN(C)[C@H](C)Cc1ccccc1 [deprenyl]
- potentiation of locomotor-stimulating effect of subthreshold L-DOPA/carbidopa ([8]; DDD mice, L-DOPA/carbidopa 10/10 mg/kg IP 15 min after drug, distance traveled for 2 h): failed to potentiate

SMILES: CNCCCN1c2ccccc2CCc2ccccc21 [desipramine]
- effect in tests of forward locomotion or akinesia and rigidity ([8]; DDD mice): none were effective

SMILES: CNCCC(Oc1ccc(C(F)(F)F)cc1)c1ccccc1 (stereo not shown) [fluoxetine]
- effect in tests of forward locomotion or akinesia and rigidity ([8]; DDD mice): none were effective

SMILES: CN1Cc2c(N)cccc2C(c2ccccc2)C1 (stereo not shown) [nomifensine]
- manifestations of akinesia and rigidity [4]: significantly reduced akinesia and rigidity
- activity at TA1 receptor (TA1 receptor): can also potently activate TA1 receptor
- reversing catalepsy ([1]; DDD mice, cumulative treatment with 10 and 30 mg/kg IP): not effective
- forward locomotion (distance traveled) [8, 19]: not effective

SMILES: CCCN1C[C@H](CSC)C[C@@H]2c3cccc4[nH]cc(c34)C[C@H]21 [pergolide]
- forward locomotion (distance traveled) [8, 19]: induced locomotion

SMILES: CC(C)(N)Cc1ccccc1 [phentermine]
- effects on akinesia and rigidity after pretreatment with D1 and D2 DA antagonists [4]: did not prevent the effects
- manifestations of akinesia and rigidity [4]: effective in reducing manifestations of akinesia and rigidity

SMILES: CC(N)(Cc1ccc(O)cc1)C(=O)O (stereo not drawn) [αMT, α-methyl-p-tyrosine]
- duration of the striatal DA depletion (DAT-KO mice [10]): up to 16 h
- striatal DA remaining after depletion (DAT-KO mice [10]; 15 min): 5 % of control levels in DAT-KO mice
- striatal DA remaining after depletion (DAT-KO mice [10]; DAT-KO mice, expressed against WT control): less than 0.2 % of WT control levels
- depletion of striatal tissue DA (WT mice [11]): 60%
- NE depletion in frontal cortex (DAT-KO mice [12]): about 60%
- NE depletion in frontal cortex (WT mice [13]): about 60%
- effect on extracellular DA levels in striatum (DAT-KO mice [7]; αMT 250 mg/kg IP, freely moving DAT-KO mice): essentially eliminated extracellular DA levels
- effect on extracellular DA levels in striatum (WT mice [14]): only a partial decrease
- consequences of chronic treatment (DAT-KO mice [15]): showed no negative consequences
- time to restoration of locomotor activity (DAT-KO mice [16]; after αMT 250 mg/kg IP): 16 to 24 h
- total distance traveled for 210 min after drug administration (DAT-KO mice [16]; αMT 250 mg/kg IP): 448±75 cm/210 min
- total distance traveled for 210 min after drug administration (WT mice [17]): 505±98 cm/210 min
- akinesia, catalepsy, grasping, bracing, tremor and ptosis tests (DAT-KO mice [18]): induced profound alterations
- righting reflex (DAT-KO mice [18]): did not affect the righting reflex

Source: patent publication US8877802B2 (priority 2005, dated 2014)
